Where two headings read alike, the source gives them in different places.
What was measured:
MTB H37Rv = experiment: Macrophage infection and CFU assay (intracellular survival in RAW 264.7); type: cell-based, Mycobacterium tuberculosis; conditions: for Percent survival of MTB (percentage of control): adjunctive action experiment, dose not given
[1] = system: MDR clinical isolate of MTB, strain-1; type: cell-based, Mycobacterium tuberculosis; conditions: 10μM and 20μM, 48 and 72h
[2] = system: MDR clinical isolate of MTB, strain-2; type: cell-based, Mycobacterium tuberculosis; conditions: 10μM and 20μM, 48 and 72h
[3] = system: LC3-I to LC3-II conversion and p62 degradation in RAW 264.7 cells; experiment: Western blot of autophagy markers, uninfected cells; type: cell-based, Murine; conditions: 10μM and 20μM, 24h
Procedure: (§1) Cells were harvested, washed thrice with 1X cold PBS and lysed in RIPA lysis buffer containing 1% protease inhibitor cocktail (Sigma) and 3% phosphatase inhibitor cocktail (Sigma). Total protein concentration in the cell lysate was estimated by Bradford reagent (Sigma). Samples containing equal amounts of protein (80μg/well) were run on 10% SDS PAGE followed by electro transfer on nitrocellulose membrane. Membranes were blocked with blocking buffer (5% w/v skimmed milk in 1X TBST) for 30 minutes followed by incubation with respective antibodies for 4 h at room temperature. Further, membranes were washed thrice with 1xTBST for 15 minutes and incubated appropriate secondary antibody HRP conjugate for 2 h and blots were developed with Enhanced Chemiluminescence kit (Roche) according to manufacturer’s protocol. Densitometric analysis was performed using ImageJ software.

[4] = system: LC3-I to LC3-II conversion and p62 degradation in MTB H37Rv infected RAW cells; experiment: Western blot of autophagy markers, MTB infected cells; type: cell-based, Murine; conditions: 10μM and 20μM, MTB H37Rv infected RAW macrophages
Procedure: as §1

[5] = system: Caspase-3, cleaved caspase-3, cleaved PARP, Bax and Bcl-2 in RAW cells with or without MTB infection; experiment: Western blot of pro and anti-apoptotic proteins; type: cell-based, Murine; conditions: 10μM and 20μM
Procedure: as §1

[6] = system: GFP-MTB H37Rv infected RAW 264.7 cells; experiment: Confocal microscopy of phagosome lysosome fusion; type: cell-based, Murine; conditions: 10μM and 20μM, 48h, MOI 5
Procedure: RAW 264.7 cells (5 x 10^5 cells/ml) were seeded on sterile coverslips in 6-well plates and incubated at 37°C for overnight in CO2 incubator. Next day cells were infected with GFP-MTB H37Rv at MOI 5 and treated with CMN for 48h. Lysotracker Red (Thermo) was added to each well at concentration of 70nM for 3h prior to the end of incubation. Coverslips were washed twice with sterile 1XPBS and fixed with 4% para formaldehyde. Cover slips were mounted on glass slides using Prolong® Gold Antifade (Thermo) mounting reagent containing DAPI and images were acquired on Zeiss LSM 510 Meta confocal microscope (Carl Zeiss) equipped with 63X oil immersion lens. Optical sections with Z-stack were taken to evaluate colocalization and images were deconvolved.

[7] = Oral pharmacokinetics study; conditions: 50 mg/kg

**Q.** With `COc1cc(C=CC(=O)CC(=O)C=Cc2ccc(O)c(OC)c2)ccc1O` [CMN, 1,7-bis (4-hydroxy-3-methoxy-phenyl) hepta-1,6-diene-3,5-dione] as the molecule, how does the “Percent survival (percentage of control)” value (MTB H37Rv; 10μM, 48h, in presence of autophagy inhibitor 3-MA) read?
**A.** 87.1 ± 6.6%

**Q.** And the “Percent survival (percentage of control)” value (MTB H37Rv; 10μM, 48h post infection, RAW 264.7, MOI 5)?
**A.** 57 ± 4.6%

**Q.** And the “Percent survival (percentage of control)” value (MTB H37Rv; 10μM, 72h, in presence of autophagy inhibitor 3-MA)?
**A.** 80.1 ± 6.8%

**Q.** What about the “Percent survival (percentage of control)” value (MTB H37Rv; 10μM, 72h post infection, RAW 264.7, MOI 5) of the same molecule?
**A.** 49.1 ± 7.8%

**Q.** And the “Percent survival (percentage of control)” value (MTB H37Rv; 20μM, 48h, RAW 264.7, MOI 5)?
**A.** 47.7 ± 4.1%

**Q.** What about the “Percent survival (percentage of control)” value (MTB H37Rv; 20μM, 48h, in presence of autophagy inhibitor 3-MA) of the same molecule?
**A.** 87.1 ± 4.6%

**Q.** And the “Percent survival (percentage of control)” value (MTB H37Rv; 20μM, 72h, RAW 264.7, MOI 5)?
**A.** 45.6 ± 6.1%

**Q.** What about the “Percent survival (percentage of control)” value (MTB H37Rv; 20μM, 72h, in presence of autophagy inhibitor 3-MA) of the same molecule?
**A.** 85.7 ± 8.8%

**Q.** And the “Percent survival of MTB (percentage of control)” value (MTB H37Rv; 48h of treatment)?
**A.** 41.6 ± 3.5%

**Q.** What about the “Percent survival of MTB (percentage of control)” value (MTB H37Rv; 72h of treatment) of the same molecule?
**A.** 34.8 ± 3.0%

**Q.** What about the Percent survival [1] of the same molecule?
**A.** inhibited the percent survival

**Q.** What about the Percent survival ([1]; treatment with 3-MA) of the same molecule?
**A.** increase in the percent survival that was comparable to untreated controls

**Q.** And the Percent survival [2]?
**A.** inhibited the percent survival

**Q.** What about the Percent survival ([2]; treatment with 3-MA) of the same molecule?
**A.** increase in the percent survival that was comparable to untreated controls

**Q.** What about the “Conversion of LC3-I to LC3-II (immunoblotting)” value [3] of the same molecule?
**A.** conversion of LC3-I to II at 10μM and 20μM dose

**Q.** And the “Degradation of p62 (immunoblotting)” value [3]?
**A.** p62 degradation at 10μM and 20μM dose

**Q.** What about the “Autophagy induction (LC3-I to LC3-II conversion and p62 degradation)” value [4] of the same molecule?
**A.** autophagy induction in MTB infected cells after CMN treatment

**Q.** What about the “Expression of anti-apoptotic protein Bcl-2” value ([5]; 24h, RAW cells with or without MTB infection) of the same molecule?
**A.** downregulation

**Q.** What about the “Expression of pro apoptotic proteins cleaved caspase-3, cleaved PARP and Bax” value ([5]; 24h post treatment, compared to untreated cells) of the same molecule?
**A.** upregulated

**Q.** And the “Phagosome lysosome fusion (co localization of GFP and Lysotracker Red)” value [6]?
**A.** formation of yellow compartment in both the CMN treatment groups after 48h

**Q.** What about the AUC(0-inf) ([7]; BALB/c, mouse, in vivo, po) of the same molecule?
**A.** 170 ng·h/mL

**Q.** And the AUC(0-t) ([7]; BALB/c, mouse, in vivo, po)?
**A.** 119 ng·h/mL

**Q.** And the Cmax ([7]; BALB/c, mouse, in vivo, po)?
**A.** 45.2 ng/mL

**Q.** What about the MRT inf ([7]; BALB/c, mouse, in vivo, po) of the same molecule?
**A.** 5.07 h

**Q.** And the Tmax ([7]; BALB/c, mouse, in vivo, po)?
**A.** 0.25 h

**Q.** And the half-life ([7]; BALB/c, mouse, in vivo, po)?
**A.** 3.66 h

**Q.** And the k el ([7]; BALB/c, mouse, in vivo, po)?
**A.** 5.28e-05 s⁻¹

**Q.** What about the “Time up to which CMN was detected in plasma after administration” value ([7]; oral, BALB/c mice) of the same molecule?
**A.** up to 8 h

**Q.** Which results are given for `NNC(=O)c1ccncc1` [INH, isoniazid]?
**A.** Percent survival of MTB (percentage of control) (MTB H37Rv; 48h of treatment): 35.1 ± 2.8%; Percent survival of MTB (percentage of control) (MTB H37Rv; 72h of treatment): 22.9 ± 4.5%

From paper PMC10424441, “Macrophage targeted polymeric curcumin nanoparticles limit intracellular survival of Mycobacterium tuberculosis through induction of autophagy and augment anti-TB activity of isoniazid in RAW 264.7 macrophages” (Frontiers in Immunology, 2023)
